Laboratory results: ChEMBL document CHEMBL3877252, “Fluorescein hydrazones: A series of novel non-intercalative topoisomerase IIα catalytic inhibitors induce G1 arrest and apoptosis in breast and colon cancer cells” (Eur J Med Chem, 2017)

Key:
[1] = biological target: T1, DNA topoisomerase 1 (Homo sapiens) (UniProt P11387); test: Inhibition of human topoisomerase-1 assessed as inhibition of relaxation of supercoiled pBR322 plasmid DNA at 100 uM measured after 1 hr by ethidium bromide staining based agarose gel electrophoresis relative to control
T1 sequence (whole entry): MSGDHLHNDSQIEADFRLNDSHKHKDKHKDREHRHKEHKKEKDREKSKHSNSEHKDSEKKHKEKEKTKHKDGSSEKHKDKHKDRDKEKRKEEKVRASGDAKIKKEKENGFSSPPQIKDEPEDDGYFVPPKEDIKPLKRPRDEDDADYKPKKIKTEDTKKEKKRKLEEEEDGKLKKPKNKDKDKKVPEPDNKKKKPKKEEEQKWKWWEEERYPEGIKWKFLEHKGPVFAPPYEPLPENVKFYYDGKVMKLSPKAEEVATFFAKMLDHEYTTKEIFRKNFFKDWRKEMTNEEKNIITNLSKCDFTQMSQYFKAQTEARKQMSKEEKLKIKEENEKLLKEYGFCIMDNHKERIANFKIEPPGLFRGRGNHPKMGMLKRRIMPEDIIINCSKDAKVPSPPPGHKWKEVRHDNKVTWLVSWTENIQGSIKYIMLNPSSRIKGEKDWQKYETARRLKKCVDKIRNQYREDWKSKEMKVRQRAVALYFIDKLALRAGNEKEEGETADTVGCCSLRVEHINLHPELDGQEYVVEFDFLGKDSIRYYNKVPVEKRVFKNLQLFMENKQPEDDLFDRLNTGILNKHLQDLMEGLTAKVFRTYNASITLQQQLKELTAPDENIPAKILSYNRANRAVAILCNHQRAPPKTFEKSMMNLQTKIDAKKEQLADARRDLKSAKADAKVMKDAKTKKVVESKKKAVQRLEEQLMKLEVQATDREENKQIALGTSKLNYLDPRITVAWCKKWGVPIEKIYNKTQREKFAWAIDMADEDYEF

[2] = biological target: T1, DNA topoisomerase 1 (Homo sapiens); test: Inhibition of human topoisomerase-1 assessed as inhibition of relaxation of supercoiled pBR322 plasmid DNA at 20 uM measured after 1 hr by ethidium bromide staining based agarose gel electrophoresis relative to control
[3] = biological target: DNA topoisomerase 2-alpha (Homo sapiens) (UniProt P11388); test: Inhibition of human topoisomerase-2 alpha assessed as inhibition of relaxation of supercoiled pBR322 plasmid DNA at 100 uM measured after 1 hr by ethidium bromide staining based agarose gel electrophoresis relative to control
DNA topoisomerase 2-alpha (Homo sapiens), sequence (P11388 whole entry): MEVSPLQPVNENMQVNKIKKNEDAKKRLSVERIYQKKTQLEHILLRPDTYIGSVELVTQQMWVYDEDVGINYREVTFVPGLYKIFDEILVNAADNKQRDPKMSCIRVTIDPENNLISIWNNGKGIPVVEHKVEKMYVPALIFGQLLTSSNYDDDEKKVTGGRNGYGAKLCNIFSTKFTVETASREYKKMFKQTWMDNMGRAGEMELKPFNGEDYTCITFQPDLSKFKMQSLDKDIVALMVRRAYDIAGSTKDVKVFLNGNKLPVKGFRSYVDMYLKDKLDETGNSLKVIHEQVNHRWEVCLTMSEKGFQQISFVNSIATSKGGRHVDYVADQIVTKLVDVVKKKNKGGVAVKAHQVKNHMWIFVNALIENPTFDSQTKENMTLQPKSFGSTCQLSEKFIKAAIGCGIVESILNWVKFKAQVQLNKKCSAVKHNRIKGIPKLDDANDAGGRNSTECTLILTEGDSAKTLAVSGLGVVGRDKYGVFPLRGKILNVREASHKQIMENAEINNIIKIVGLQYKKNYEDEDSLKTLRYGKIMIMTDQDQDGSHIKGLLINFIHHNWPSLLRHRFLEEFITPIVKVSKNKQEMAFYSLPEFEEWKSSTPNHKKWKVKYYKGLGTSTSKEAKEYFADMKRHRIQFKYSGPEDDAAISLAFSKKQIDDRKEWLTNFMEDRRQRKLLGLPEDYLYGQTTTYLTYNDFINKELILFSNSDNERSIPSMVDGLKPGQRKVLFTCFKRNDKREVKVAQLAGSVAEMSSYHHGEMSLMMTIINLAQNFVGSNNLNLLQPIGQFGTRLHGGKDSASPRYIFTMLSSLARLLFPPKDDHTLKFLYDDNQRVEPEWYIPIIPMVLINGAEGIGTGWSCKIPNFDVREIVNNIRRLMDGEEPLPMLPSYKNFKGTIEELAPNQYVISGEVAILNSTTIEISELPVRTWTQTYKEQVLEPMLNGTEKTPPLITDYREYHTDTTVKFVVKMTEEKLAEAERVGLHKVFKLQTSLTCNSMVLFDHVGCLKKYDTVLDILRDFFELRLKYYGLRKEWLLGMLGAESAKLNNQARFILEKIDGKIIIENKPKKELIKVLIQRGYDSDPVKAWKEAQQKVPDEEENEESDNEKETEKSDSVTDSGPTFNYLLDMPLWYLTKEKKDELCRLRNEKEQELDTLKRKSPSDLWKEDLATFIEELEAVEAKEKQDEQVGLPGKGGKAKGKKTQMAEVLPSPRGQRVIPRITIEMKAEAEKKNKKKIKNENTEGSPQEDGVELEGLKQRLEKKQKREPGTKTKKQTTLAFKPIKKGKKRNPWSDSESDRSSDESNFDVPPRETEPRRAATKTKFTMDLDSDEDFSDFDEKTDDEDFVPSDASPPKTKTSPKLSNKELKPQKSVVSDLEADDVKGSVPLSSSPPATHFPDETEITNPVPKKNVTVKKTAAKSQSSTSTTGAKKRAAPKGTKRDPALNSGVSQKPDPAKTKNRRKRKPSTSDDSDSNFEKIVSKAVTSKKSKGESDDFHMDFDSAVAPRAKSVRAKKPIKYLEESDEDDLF

[4] = biological target: DNA topoisomerase 2-alpha (Homo sapiens) (UniProt P11388); test: Inhibition of human topoisomerase-2 alpha assessed as inhibition of relaxation of supercoiled pBR322 plasmid DNA at 20 uM measured after 1 hr by ethidium bromide staining based agarose gel electrophoresis relative to control
[5] = Antiproliferative activity against human T47D cells measured after 72 hrs by CCK8 assay; format: functional, cell-based
[6] = Antiproliferative activity against human DU145 cells measured after 72 hrs by CCK8 assay; format: functional, cell-based; details: DU-145, 72 h
[7] = Antiproliferative activity against human HCT15 cells measured after 72 hrs by CCK8 assay; format: functional, cell-based; details: HCT-15, 72 h
[8] = Antiproliferative activity against human MCF7 cells measured after 72 hrs by CCK8 assay; format: functional, cell-based; details: MCF7, 72 h
[9] = species: Bos taurus; test: Displacement of ethidium bromide from calf thymus DNA measured after 30 mins by fluorescence quenching assay

Row | SMILES | inhibition [1] | inhibition [2] | inhibition [3] | inhibition [4] | inhibition [9] | IC50 [5] | IC50 [6] | IC50 [7] | IC50 [8]
1 | CCOc1ccc2c(c1)Oc1cc(OC(=O)c3ccccc3Cl)ccc1C21c2ccccc2C(=O)N1/N=C/c1ccc(Cl)cc1 (stereo unspecified) | 90.5% | 36.4% | 83.7% | 1.5% |  | > 50 µM | > 50 µM | 28.7 µM | > 50 µM
2 | COc1cc(NS(C)(=O)=O)ccc1Nc1c2ccccc2nc2ccccc12 |  |  |  |  | Dose-dependent effect |  |  |  | 

Continued, in another order:

Row | inhibition [1] | inhibition [2] | inhibition [3] | inhibition [4] | inhibition [9] | SMILES | IC50 [5] | IC50 [6] | IC50 [7] | IC50 [8]
3 | 98% | 77% | 83.8% | 2.9% |  | CCOc1ccc2c(c1)Oc1cc(OC(=O)c3ccccc3[N+](=O)[O-])ccc1C21c2ccccc2C(=O)N1/N=C/c1ccc(Cl)cc1Cl (stereo unspecified) | > 50 µM | 6.74 µM | 6.25 µM | > 50 µM
4 | 12.3% |  | 80% | 2.3% |  | CCOc1ccc2c(c1)Oc1cc(O)ccc1C21c2ccccc2C(=O)N1/N=C/c1ccc(Cl)cc1Cl (stereo unspecified) | > 50 µM | > 50 µM | 3.17 µM | 23.2 µM
5 | 22.7% |  | 81.6% | 1.3% |  | CCOc1ccc2c(c1)Oc1cc(O)ccc1C21c2ccccc2C(=O)N1/N=C/c1ccc(Cl)cc1 (stereo unspecified) | 5.74 µM | 2.3 µM | 2.19 µM | 9.77 µM
